# According to publication PMC3692398 (Biochemical pharmacology, 2013):
# Like-named read-outs stand apart in the source and are kept apart here.
# What was measured:
# hNET [1] = biological target: T1, hNET (Homo sapiens, UniProt P23975); conditions: read-out: Kd of radioligand, HEK-hNET; ref Eshleman et al., 1999; cited from earlier work
# hSERT [2] = biological target: T2, hSERT (Homo sapiens, UniProt P31645); conditions: read-out: Kd of radioligand, HEK-hSERT; ref Eshleman et al., 1999; cited from earlier work
# hDAT [3] = biological target: T3, hDAT (Homo sapiens, UniProt Q01959); conditions: read-out: Kd of radioligand, HEK-hDAT; ref Eshleman et al., 1999; cited from earlier work
# hVMAT2 [4] = biological target: T4, hVMAT2 (Homo sapiens, UniProt Q05940); assay: Inhibition of [3H]DHTB binding, HEK-hVMAT2 membranes
# human DA D2 receptor = human DA D2 receptor (Homo sapiens, UniProt P14416); format: binding; conditions: test drugs up to the maximal concentration tested (10 µM)
# hSERT [5] = biological target: T2, hSERT; assay: Inhibition of [3H]5-HT uptake, intact HEK-hSERT cells; format: cell-based
# hNET [6] = biological target: T1, hNET; assay: cell-based; format: cell-based
# hSigma1 receptor [7] = biological target: T5, hSigma1 receptor (Homo sapiens, UniProt Q99720); assay: [3H]; format: binding; conditions: Inhibition of [3H]pentazocine binding Ki ± sem, hSigma1
# h5-HT1A receptor [8] = biological target: T6, h5-HT1A receptor (Homo sapiens, UniProt P08908); assay: [3H]8-OH-DPAT binding, HEK-h5-HT1A
# T6 sequence (P08908 1-422): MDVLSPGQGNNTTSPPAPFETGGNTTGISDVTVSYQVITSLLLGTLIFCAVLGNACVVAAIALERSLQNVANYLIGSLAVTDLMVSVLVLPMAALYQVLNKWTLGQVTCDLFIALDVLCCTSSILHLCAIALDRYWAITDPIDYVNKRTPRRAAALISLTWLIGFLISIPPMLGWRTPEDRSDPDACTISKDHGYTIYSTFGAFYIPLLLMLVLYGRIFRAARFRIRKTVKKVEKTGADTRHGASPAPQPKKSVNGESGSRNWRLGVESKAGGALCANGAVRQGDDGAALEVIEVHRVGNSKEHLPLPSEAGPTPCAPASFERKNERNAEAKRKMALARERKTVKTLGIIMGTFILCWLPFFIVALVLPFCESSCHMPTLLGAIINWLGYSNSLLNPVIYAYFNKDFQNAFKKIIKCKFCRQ
# hVMAT2 [9] = biological target: T4, hVMAT2; assay: Inhibition of [3H]5-HT uptake, HEK-hVMAT2 membrane preparation; format: biochemical
# hDAT [10] = biological target: T3, hDAT; assay: Superfusion release of preloaded [3H]DA from HEK-hDAT cells; format: cell-based
# hNET [11] = biological target: T1, hNET; assay: Superfusion release of preloaded [3H]NE from HEK-hNET cells; format: cell-based
# human DA D1 receptor = human DA D1 receptor (Homo sapiens, UniProt P21728); assay: [3H]SCH23390 binding, LhD1 cells; conditions: test drugs up to the maximal concentration tested (10 µM)
# h5-HT2A receptor [12] = biological target: T7, h5-HT2A receptor (Homo sapiens, UniProt P28223); assay: Inhibition of 5-HT-stimulated IP-1 formation; format: cell-based
# h5-HT2C receptor [13] = biological target: T8, h5-HT2C receptor (Homo sapiens, UniProt P28335); format: cell-based; conditions: data not shown
# T8 sequence (P28335 33-458): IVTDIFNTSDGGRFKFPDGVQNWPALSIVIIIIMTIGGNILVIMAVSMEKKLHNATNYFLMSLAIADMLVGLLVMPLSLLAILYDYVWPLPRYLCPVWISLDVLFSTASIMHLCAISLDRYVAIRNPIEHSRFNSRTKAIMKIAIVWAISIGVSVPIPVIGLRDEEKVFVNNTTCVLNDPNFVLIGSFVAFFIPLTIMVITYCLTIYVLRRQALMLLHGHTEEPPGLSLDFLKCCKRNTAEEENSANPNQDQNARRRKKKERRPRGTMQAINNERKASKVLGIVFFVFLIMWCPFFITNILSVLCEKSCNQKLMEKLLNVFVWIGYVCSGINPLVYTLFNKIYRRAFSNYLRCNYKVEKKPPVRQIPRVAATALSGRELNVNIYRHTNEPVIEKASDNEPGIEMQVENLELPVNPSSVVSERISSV
# h5-HT2A receptor [14] = biological target: T7, h5-HT2A receptor; assay: [125I]DOI binding, HEK-h5-HT2A
# h5-HT2C receptor [15] = biological target: T8, h5-HT2C receptor; assay: biochemical; format: binding
# hSERT [16] = biological target: T2, hSERT; assay: Superfusion release of preloaded [3H]5-HT from HEK-hSERT cells; format: cell-based
# hVMAT2 [17] = biological target: T4, hVMAT2; assay: Superfusion release of preloaded [3H]NE from HEK-hVMAT2 cells; format: cell-based
# h5-HT2C receptor [18] = biological target: T8, h5-HT2C receptor; assay: Inhibition of 5-HT-stimulated IP-1 formation; format: cell-based
# human DA D3 receptor = human DA D3 receptor (Homo sapiens, UniProt P35462); assay: [3H]YM-09151-2 binding, CHOp-D3 cells; conditions: test drugs up to 10 µM; words give concentration range, 'low' = low nanomolar
# h5-HT2A receptor [19] = biological target: T7, h5-HT2A receptor; conditions: data not shown
# hSERT [20] = biological target: T2, hSERT; assay: Inhibition of [125I]RTI-55 binding, HEK-hSERT membranes
# human D4.4 receptor = biological target: T9, human D4.4 receptor (Homo sapiens, UniProt P21917); format: binding; conditions: test drugs up to 10 µM; words give concentration range, 'low' = low nanomolar
# T9 sequence (P21917 1-419): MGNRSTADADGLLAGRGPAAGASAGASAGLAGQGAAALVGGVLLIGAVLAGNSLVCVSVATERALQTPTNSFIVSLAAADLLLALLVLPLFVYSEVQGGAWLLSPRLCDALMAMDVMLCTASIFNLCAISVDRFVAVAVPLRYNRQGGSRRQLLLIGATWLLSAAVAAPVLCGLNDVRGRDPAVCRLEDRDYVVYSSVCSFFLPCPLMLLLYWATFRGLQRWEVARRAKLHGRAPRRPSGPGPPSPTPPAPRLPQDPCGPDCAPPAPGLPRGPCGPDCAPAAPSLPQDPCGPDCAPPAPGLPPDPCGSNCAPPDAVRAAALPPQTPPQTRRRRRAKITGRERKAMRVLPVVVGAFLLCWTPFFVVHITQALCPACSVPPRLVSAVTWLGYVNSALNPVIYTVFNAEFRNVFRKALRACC
# hDAT [21] = biological target: T3, hDAT; assay: Inhibition of [3H]DA uptake, intact HEK-hDAT cells; format: cell-based
# hDAT [22] = biological target: T3, hDAT; assay: Inhibition of [125I]RTI-55 binding, HEK-hDAT membranes
# hNET [23] = biological target: T1, hNET; assay: biochemical; format: binding
# hSigma1 receptor [24] = biological target: T5, hSigma1 receptor; conditions: read-out: hSigma1 Ki, published value; ref Lee et al., 2008; cited from earlier work
# h5-HT1A receptor [25] = biological target: T6, h5-HT1A receptor; assay: Stimulation of [35S]GTPγS binding, HEK-h5-HT1A membranes; format: biochemical
# T4 sequence (Q05940 whole entry): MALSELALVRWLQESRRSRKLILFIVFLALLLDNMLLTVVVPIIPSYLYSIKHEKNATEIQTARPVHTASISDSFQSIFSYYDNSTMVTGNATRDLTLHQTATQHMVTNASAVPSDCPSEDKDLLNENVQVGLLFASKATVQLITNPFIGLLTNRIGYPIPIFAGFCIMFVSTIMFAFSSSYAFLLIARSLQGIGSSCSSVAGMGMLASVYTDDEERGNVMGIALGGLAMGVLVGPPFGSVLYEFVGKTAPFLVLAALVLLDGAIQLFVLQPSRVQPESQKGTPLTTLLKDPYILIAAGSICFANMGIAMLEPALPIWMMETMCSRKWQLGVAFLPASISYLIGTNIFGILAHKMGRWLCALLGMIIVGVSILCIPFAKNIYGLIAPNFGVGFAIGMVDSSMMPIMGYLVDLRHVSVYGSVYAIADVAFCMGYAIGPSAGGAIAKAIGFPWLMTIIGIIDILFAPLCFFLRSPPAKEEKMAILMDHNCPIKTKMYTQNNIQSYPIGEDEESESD
# T7 sequence (P28223 whole entry): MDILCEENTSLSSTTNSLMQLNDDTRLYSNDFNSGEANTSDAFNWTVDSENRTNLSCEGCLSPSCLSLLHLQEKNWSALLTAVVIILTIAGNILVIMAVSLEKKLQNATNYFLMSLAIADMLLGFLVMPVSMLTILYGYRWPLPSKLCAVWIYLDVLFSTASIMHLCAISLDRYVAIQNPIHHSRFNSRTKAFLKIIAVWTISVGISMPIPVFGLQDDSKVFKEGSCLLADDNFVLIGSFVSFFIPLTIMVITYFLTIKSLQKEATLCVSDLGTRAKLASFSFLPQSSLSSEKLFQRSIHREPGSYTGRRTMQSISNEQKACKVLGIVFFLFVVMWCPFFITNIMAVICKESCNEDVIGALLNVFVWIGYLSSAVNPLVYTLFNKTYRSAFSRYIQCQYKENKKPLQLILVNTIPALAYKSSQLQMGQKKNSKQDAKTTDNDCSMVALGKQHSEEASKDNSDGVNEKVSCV
# T1 sequence (P23975 whole entry): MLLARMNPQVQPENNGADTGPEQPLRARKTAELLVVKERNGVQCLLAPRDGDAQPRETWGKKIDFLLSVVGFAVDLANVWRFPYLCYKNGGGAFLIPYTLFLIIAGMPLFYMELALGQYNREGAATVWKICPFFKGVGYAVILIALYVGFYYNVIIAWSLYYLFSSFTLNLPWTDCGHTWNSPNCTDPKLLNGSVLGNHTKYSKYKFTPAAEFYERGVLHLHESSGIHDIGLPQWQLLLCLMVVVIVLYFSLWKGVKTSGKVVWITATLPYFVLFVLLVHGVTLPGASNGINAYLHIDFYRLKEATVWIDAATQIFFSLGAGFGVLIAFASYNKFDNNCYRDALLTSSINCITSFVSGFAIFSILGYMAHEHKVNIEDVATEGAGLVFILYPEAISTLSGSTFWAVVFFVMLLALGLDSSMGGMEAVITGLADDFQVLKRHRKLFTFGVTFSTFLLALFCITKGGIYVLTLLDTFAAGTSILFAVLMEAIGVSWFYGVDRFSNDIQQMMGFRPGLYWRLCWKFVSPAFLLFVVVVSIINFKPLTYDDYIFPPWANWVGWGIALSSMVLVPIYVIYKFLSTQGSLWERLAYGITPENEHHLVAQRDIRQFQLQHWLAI
# T3 sequence (Q01959 whole entry): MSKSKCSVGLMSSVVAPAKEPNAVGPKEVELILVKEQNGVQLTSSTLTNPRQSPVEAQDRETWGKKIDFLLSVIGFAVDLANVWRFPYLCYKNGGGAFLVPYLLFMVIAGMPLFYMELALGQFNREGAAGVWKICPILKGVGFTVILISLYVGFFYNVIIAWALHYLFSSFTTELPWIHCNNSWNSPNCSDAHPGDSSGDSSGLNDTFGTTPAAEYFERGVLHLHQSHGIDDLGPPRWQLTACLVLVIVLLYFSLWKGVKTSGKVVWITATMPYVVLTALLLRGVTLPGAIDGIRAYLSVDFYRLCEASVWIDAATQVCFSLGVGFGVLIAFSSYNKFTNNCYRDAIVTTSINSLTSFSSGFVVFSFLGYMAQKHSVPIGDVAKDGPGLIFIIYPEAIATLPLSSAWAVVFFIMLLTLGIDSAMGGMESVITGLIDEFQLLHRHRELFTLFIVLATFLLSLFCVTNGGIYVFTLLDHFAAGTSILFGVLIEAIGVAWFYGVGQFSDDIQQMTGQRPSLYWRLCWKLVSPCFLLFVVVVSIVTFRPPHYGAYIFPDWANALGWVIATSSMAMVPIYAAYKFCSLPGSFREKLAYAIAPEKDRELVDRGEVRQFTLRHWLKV
# T2 sequence (P31645 whole entry): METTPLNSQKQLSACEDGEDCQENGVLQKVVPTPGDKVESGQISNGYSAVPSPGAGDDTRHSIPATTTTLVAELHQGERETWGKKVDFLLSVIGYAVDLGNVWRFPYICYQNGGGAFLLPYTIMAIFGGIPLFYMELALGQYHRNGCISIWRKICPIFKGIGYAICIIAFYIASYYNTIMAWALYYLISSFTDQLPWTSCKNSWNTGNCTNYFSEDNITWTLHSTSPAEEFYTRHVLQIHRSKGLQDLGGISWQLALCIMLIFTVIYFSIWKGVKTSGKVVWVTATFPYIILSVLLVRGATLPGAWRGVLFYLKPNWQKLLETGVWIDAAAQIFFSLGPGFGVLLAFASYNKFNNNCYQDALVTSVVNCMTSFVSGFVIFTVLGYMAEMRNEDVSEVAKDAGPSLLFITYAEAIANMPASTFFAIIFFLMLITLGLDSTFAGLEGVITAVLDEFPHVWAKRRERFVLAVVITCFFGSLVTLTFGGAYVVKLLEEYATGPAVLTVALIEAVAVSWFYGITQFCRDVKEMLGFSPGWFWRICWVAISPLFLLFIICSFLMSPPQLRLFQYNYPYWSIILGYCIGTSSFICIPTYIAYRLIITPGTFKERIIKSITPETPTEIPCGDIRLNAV
# T5 sequence (Q99720 whole entry): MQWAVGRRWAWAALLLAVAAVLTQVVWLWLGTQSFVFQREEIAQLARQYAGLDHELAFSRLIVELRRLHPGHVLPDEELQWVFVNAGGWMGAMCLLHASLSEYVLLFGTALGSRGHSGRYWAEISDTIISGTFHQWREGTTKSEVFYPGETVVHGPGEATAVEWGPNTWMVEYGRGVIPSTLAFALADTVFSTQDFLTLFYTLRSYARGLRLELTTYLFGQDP
# human DA D3 receptor, sequence (P35462 whole entry): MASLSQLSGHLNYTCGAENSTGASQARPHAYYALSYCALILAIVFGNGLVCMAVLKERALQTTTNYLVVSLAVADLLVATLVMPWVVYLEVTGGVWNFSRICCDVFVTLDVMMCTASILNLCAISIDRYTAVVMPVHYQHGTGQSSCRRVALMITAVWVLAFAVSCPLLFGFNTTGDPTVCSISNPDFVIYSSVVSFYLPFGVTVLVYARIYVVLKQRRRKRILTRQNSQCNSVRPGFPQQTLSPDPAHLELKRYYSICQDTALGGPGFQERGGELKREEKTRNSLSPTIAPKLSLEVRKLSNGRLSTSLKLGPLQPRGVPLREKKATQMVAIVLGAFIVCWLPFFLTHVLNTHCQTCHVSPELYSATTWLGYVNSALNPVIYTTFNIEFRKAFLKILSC
# human DA D2 receptor, sequence (P14416 whole entry): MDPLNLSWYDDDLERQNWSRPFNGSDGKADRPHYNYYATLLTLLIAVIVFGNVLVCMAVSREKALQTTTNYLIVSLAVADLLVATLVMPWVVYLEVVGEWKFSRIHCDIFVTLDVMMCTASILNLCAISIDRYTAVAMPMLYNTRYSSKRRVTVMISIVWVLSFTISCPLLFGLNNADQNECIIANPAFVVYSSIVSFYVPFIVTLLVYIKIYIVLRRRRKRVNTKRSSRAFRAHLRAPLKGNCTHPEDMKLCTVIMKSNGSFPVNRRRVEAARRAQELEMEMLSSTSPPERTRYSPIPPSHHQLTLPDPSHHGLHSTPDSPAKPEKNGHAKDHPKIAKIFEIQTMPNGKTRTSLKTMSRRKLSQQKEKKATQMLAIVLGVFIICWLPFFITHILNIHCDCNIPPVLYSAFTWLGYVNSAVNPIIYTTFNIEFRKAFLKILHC
# human DA D1 receptor, sequence (P21728 whole entry): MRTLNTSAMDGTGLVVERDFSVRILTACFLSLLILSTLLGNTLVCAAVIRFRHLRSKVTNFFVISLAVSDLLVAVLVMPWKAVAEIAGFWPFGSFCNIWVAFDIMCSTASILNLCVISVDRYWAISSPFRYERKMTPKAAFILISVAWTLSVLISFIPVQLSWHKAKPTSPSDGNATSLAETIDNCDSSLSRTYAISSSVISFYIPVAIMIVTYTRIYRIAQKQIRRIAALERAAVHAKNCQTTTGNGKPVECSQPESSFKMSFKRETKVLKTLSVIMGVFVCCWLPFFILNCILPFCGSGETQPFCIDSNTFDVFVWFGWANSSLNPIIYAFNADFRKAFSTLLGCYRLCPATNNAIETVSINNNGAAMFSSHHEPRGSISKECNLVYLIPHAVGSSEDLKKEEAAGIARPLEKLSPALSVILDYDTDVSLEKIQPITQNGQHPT
structure (smiles),measurement,setting,value
COC(=O)[C@H]1[C@@H](c2ccc(I)cc2)C[C@@H]2CC[C@H]1N2C [[^125I]RTI-55],Kd,hNET [1],12.1 ± 1.9 nM
same,Kd,hSERT [2],0.98 ± 0.16 nM
same,Kd,hDAT [3],1.83 ± 0.21 nM
"CN[C@@H](C)Cc1ccccc1 [METH, (+)methamphetamine, reference compound]",Ki,hVMAT2 [4],920 ± 110 µM
same,"affinity for the [3H]YM-09151-2 binding site, DA D2 receptor",human DA D2 receptor,no measurable affinity
same,IC50,hSERT [5],4.1 ± 1.3 µM
same,"ratio of binding Ki to uptake IC50, hSERT",hSERT [5]; [125I]RTI-55 Ki / [3H]5-HT uptake IC50,59
same,IC50,hNET [6],26 ± 7.7 nM
same,"ratio of binding Ki to uptake IC50, hNET",hNET [6],53
same,Ki,hSigma1 receptor [7],3.18 ± 0.74 µM
same,Ki,h5-HT1A receptor [8],5.9 ± 0.85 µM
same,IC50,hVMAT2 [9],4.72 ± 0.61 µM
same,EC50,hDAT [10],400 ± 120 nM
same,"% maximum release ± sem, hDAT [3H]DA",hDAT [10]; relative to maximal AUC induced by METH (1 or 10 µM),101.9 ± 4.9%
same,EC50,hNET [11],128 ± 36 nM
same,"% maximum release ± sem, hNET [3H]NE",hNET [11]; relative to maximal AUC induced by METH (0.3 or 1 µM),92.7 ± 5.2%
same,"affinity for the [3H]SCH23390 binding site, DA D1 receptor",human DA D1 receptor,no measurable affinity
same,IC50,h5-HT2A receptor [12],112 ± 12 µM
same,h5-HT2A Inhibition of 5-HT-stimulated IP-1 formation % maximum inhibition ± sem,"h5-HT2A receptor [12]; 100 nM 5-HT, normalized to maximal inhibition by ketanserin (10 µM)",100.0 ± 0.0%
same,"h5-HT2C agonist activity, inositol monophosphate",h5-HT2C receptor [13],partial agonists with midmicromolar potencies
same,Ki,h5-HT2A receptor [14],43.5 ± 9.1 µM
same,Ki,h5-HT2C receptor [15],10.2 ± 2.9 µM
same,"% maximum release ± sem, hSERT [3H]5-HT",hSERT [16],97.6 ± 7.2%
same,EC50,hSERT [16],22.4 ± 0.24 µM
same,fold less potent than PCA to induce [3H]5-HT release,hSERT [16]; EC50 compared to PCA,28 fold
same,EC50,hVMAT2 [17],79 ± 29 µM
same,"Release of [3H]NE % maximum release ± sem or range, hVMAT2",hVMAT2 [17],95.5 ± 2.1%
same,IC50,h5-HT2C receptor [18],> 1 mM
same,h5-HT2C Inhibition of 5-HT-stimulated IP-1 formation % maximum inhibition ± sem,"h5-HT2C receptor [18]; 100 nM 5-HT, normalized to maximal inhibition by SB242084 (1 µM)",< 3%
same,"affinity for the [3H]YM-09151-2 binding site, DA D3 receptor",human DA D3 receptor,no measurable affinity
same,"h5-HT2A agonist activity, inositol monophosphate",h5-HT2A receptor [19],partial agonist activity at millimolar concentrations
same,Ki,hSERT [20],241 ± 8.9 µM
same,"affinity for the [3H]YM-09151-2 binding site, DA D4.4 receptor",human D4.4 receptor,no measurable affinity
same,IC50,hDAT [21],26 ± 10 nM
same,"ratio of binding Ki to uptake IC50, hDAT",hDAT [21]; [125I]RTI-55 Ki / [3H]DA uptake IC50,152
same,Ki,hDAT [22],3.96 ± 0.92 µM
same,Ki,hNET [23],1390 ± 120 nM
same,Ki,hSigma1 receptor [24],5.2 µM
same,EC50,h5-HT1A receptor [25],18.1 ± 4.2 µM
same,Emax,h5-HT1A receptor [25]; read-out: h5-HT1A Stimulation of [35S]GTPγS binding % maximum stimulation ± sem,66%
